Measurements from US11160767B2, “4,4′-trans-dihydroxystilbene for use in treating cancer” (The George Washington University, a Congressionally …, priority 2017, dated 2021).

Columns and labels:
U2OS = test: In vitro cytotoxicity (SRB assay), U2OS; format: cell-based; settings: Homo sapiens, 72 hours
Experimental: (§1) Cell lines and cell culture. HCT116, U205, PANC-1, MDA-231 cell lines were purchased from the American Type Culture Collection (Rockville, Md., US). Cells were cultured in the DMEM medium (Lonza, Basel, Switzerland) containing 10% fetal bovine serum (Gibco, Grand Island, N.Y., US), 100 Units/ml penicillin, 100 Units/mL streptomycin, […] L-glutamine (Gibco, Grand Island, N.Y., US) at 37° C. in a humidified atmosphere with 5% CO2.
(§2) In vitro cytotoxicity assays. […] SRB assay (Vichai and Kirtikara, 2006) was performed and the absorbance at 510 nm was read with a plate reader. The proliferation rate was calculated according to the Manufacturer's instruction. The IC50 value for each compound was determined from dose-effect relationship using the CompuSyn software (version 1.0.1; CompuSyn, Inc, Paramus, N.J.) (Chou, 2006). Cell proliferating doubling time was monitored over a period of 72 hours.

MDA-231/GFP = test: In vitro cytotoxicity (SRB assay), MDA-231/GFP; format: cell-based; settings: Homo sapiens, MDA-MB-231, 72 hours
Experimental: as §1, §2

[1] = system: HCT116 cells, U2OS cells, MDA-231/GFP cells, and PANC-1 cells; test: Cytotoxicity across the four cancer cell lines (SAR summary); format: cell-based
Experimental: (§3) In vitro cytotoxicity assays. Cells growing in the Log phase were treated with various compounds at different concentrations (generally 0.137 to 100 μM) for 72 hours at 37° C. SRB assay (Vichai and Kirtikara, 2006) was performed and the absorbance at 510 nm was read with a plate reader. The proliferation rate was calculated according to the Manufacturer's instruction. The IC50 value for each compound was determined from dose-effect relationship using the CompuSyn software (version 1.0.1; CompuSyn, Inc, Paramus, N.J.) (Chou, 2006). Cell proliferating doubling time was monitored over a period of 72 hours.
Based on identification of resveratrol as a lead compound in the drug screening assays, the anti-cancer activity of synthetic resveratrol analogs (FIG. 2) was next investigated and compared to resveratrol using HCT116 cells, U2OS cells, MDA-231/GFP cells, and PANC-1 cells.
The structure activity relationship (SAR) of the derivatives of resveratrol were considered.

RPK-9 cells = test: Combination DHS and gemcitabine, CI, RPK-9 cells; format: cell-based, human; settings: RPK-9, in vitro, 10 μM DHS
Experimental: as §3
Next, the effect of combined treatment with DHS and gemcitabine on pancreatic tumor cells was investigated.

SKOV3-CP7 = test: DHS and cisplatin, SKOV3-CP7 cells; format: cell-based, human
Source text: The effect of DHS on a human SKOV3 ovarian cell line and its cisplatin-resistant subline, SKOV3/CP7, was investigated.

HCT116 xenograft tumor = HCT116 xenograft tumor model; format: in vivo, nude mice; settings: Day 38; DHS 50 mg/kg i.p. 14 consecutive days; cisplatin 8 mg/kg i.p.
Experimental: (§4) Xenograft mouse models. […] In xenograft studies, HCT116 (3×10^6 cells) and IGROV3/CP2 (5×10^6 cells) suspended in 100 μl of phosphate buffered saline (PBS, pH 7.4) were injected subcutaneously into the lower flank of the mice. Testing compounds were dissolved in DMSO/Tween 80/saline (10:10:80; v/v/v) buffer and were used to treat animals through intraperitoneal (i.p.) injection. […] The body weight of animals was measured throughout the study. Tumor diameters were measured with digital calipers, and the tumor volume in mm^3 was calculated by the formula: Volume=(width)^2×length/2.
(§5) HCT116 cells (5×10^6) were injected subcutaneously in nude mice and grown to approximately 100 mm^3 in volume. […] To study the preclinical toxicity of DHS, samples of hearts, livers, spleens, lung, and kidneys were collected on Day 38 and sections were stained for histological examination.

HCT116 cells = test: BrdU incorporation by FACS; format: cell-based, human; settings: reduced from 46.6%, 1 to 20 μM DHS
Source text: To test whether DHS can repress DNA replication, BrdU incorporation was examined using an immunofluorescent assay. […] BrdU incorporation was tracked by fluorescence-activated cell sorting (FACS).

And-1 protein = And-1 protein level by Western blot; format: cell-based; settings: U2OS and HCT116 cells
Experimental: Western blot analysis. Compound-treated cells were harvested and lysed. Protein extracts were subjected to electrophoresis in a SDS-polyacrylamide gel. The resolved proteins were transferred onto polyvinylidene difluoride membranes (Amersham Biosciences, Piscataway, N.J., US). After the blocking step, membranes were incubated with primary IgG antibodies, washed, and then incubated with horseradish peroxidase-conjugated anti-rabbit IgG or anti-mouse IgG secondary antibodies. Western blot signals were visualized by chemiluminescence using SuperSignal West Pico chemiluminescence reagent (Pierce, Rockford, Ill., US).
The effect of DHS treatment on And-1, RRM1, and RRM2 expression was investigated.

RRM2 = target: T1, RRM2 (Homo sapiens, UniProt P31350); test: Thermal shift assay in HCT116 cells, RRM2; format: cell-based
T1 construct: endogenous in cells; host or cells: HCT116
T1 sequence (P31350 1-389): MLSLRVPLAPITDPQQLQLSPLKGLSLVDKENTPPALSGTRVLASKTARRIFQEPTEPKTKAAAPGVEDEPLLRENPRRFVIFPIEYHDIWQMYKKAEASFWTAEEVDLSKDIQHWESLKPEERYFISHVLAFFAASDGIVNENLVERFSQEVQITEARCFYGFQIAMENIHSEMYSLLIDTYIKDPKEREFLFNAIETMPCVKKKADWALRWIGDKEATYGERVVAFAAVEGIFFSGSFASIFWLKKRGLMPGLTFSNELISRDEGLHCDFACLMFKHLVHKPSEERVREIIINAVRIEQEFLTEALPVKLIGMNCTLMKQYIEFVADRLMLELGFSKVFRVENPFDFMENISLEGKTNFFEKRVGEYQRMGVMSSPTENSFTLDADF
Experimental: To investigate binding of DHS to RRM1 and RRM2, a thermal shift assay was performed in HCT116 cells treated with DMSO (vehicle), resveratrol, DHS, gemcitabine, or hydroxyurea (Hu). Gemcitabine is known to bind RRM1 (Plunkett et al., 1995 and Chen et al., 2011), and Hu has been reported to bind RRM2 (Thelander et al., 1985). […] DHS stabilized RRM2 protein in a dose responsive manner (5 to 20 μM DHS; FIG. 11A). To rule out nonspecific effects of DHS on RRM2, an in vitro thermal shift assay was conducted. Purified RRM1 and RRM2 were mixed and then incubated with DHS or Hu for 4 hours before performing the assay.

Topoisomerase II = Topoisomerase II decatenation assay; format: biochemical
Source text: In addition, resveratrol has been previously reported to interact with DNA grooves (Usha et al., 2006). […] A similar result with And-1, RRM1, and RRM2 was also observed in DHS resistant HCT116 cells (data not shown).

cancer cell lines = test: NCI Development Therapeutics Program cell line growth; format: cell-based; settings: NCI DTP cell lines
Experimental: To confirm the cell killing effect of DHS, a clonogenic colony formation assay was conducted. […] The effect of DHS on growth of cancer cell lines was analyzed using The NCI Development Therapeutics Program (DTP).

[2] = mouse, in vivo
Experimental: as §4, §5

RRM2 levels in thermal shift assay (binding) (RRM2): binds to RRM2 | Topoisomerase II activity (decatenation of kDNA) (Topoisomerase II): inhibits Topoisomerase II activity
Structure (SMILES): Oc1ccc(/C=C/c2ccc(O)cc2)cc1 [DHS, 4,4′-trans-dihydroxystilbene]
IC50 (U2OS): 1.23 ± 0.73 µM | IC50 (MDA-231/GFP): 5.32 ± 3.38 µM | Potency relative to resveratrol according to the IC50 values [1]: 10 times | IC50 ([1]; range over four cell lines): 2.3 to 22 µM | Resensitisation to gemcitabine (RPK-9 cells): resensitized the gemcitabine-resistant pancreatic cancer line, RPK-9, to gemcitabine | Re-sensitisation to cisplatin (SKOV3-CP7): re-sensitized the SKOV3/CP7 cells to cisplatin | Sensitivity to DHS alone (SKOV3-CP7): sensitive to DHS treatment alone | Reduction in tumor volume as compared with the vehicle control group (HCT116 xenograft tumor): ~50% | BrdU incorporation (HCT116 cells): 9.52% | And-1 protein level (And-1 protein): caused down-regulation of And-1 protein | Cancer cell growth (GI50) compared to resveratrol (cancer cell lines): improved effect on suppressing cancer cell growth as compared to resveratrol | Histology, hearts, livers, lung, and kidneys [2]: no obvious damage | Histology, spleens [2]: Minor damage
